Where a SMILES comes first, the peptide text is derived from it.
Key:
Type in all cases: binding
HLA A*3201 = HLA A*3201 (Homo sapiens, UniProt P04439, A270S/D101S/D185E/E176V/E277Q/F133L/G103R/G107R/G231S/H175R/I121M/I218V/I322F/K168Q/L105A/L300P/L318F/M331R/P208A/P217A/Q94H/R106L/R138Q/S129P/T104I/T323A/T345S/V100E/V321M/V358M); assay: biochemical
HLA B*0801 = HLA B*0801 (Homo sapiens, UniProt P01889, A93T/A95T/D138N/E176V/E187T/K202T/Q94N/R180D/S35A/V36M/Y33D/Y91F); assay: biochemical
HLA B*1501 = HLA B*1501 (Homo sapiens, UniProt P01889, A329T/A93T/A95T/C349S/D201E/D98Y/E187L/E204Q/E69M/E70A/K202T/N87E/Q94N/R155S/R180W/S121R/S35A/S48A/V306I/V36M/Y140S/Y91S); assay: biochemical
HLA A*3001 = HLA A*3001 (Homo sapiens, UniProt P04439, D140H/D185E/E176W/F33S/G80R/H175R/K168Q/R138E/R41S); assay: biochemical
HLA B*1503 = HLA B*1503 (Homo sapiens, UniProt P01889, A329T/A93T/A95T/C349S/D201E/D98Y/E187L/E204Q/K202T/N87E/Q94N/R155S/R180L/S121R/S35A/V306I/V36M/Y140S/Y91S); assay: biochemical
HLA A*6802 = HLA A*6802 (Homo sapiens, UniProt P04439, A269V/D140Y/D185E/E176V/E277Q/E87N/F33Y/G231S/I121R/I166T/I218V/L180W/L300P/L318F/N151K/P208A/P217A/Q86R/R138H/R169H/S129P/T345S/V36M)
HLA B*3501 = HLA B*3501 (Homo sapiens, UniProt P01889, A329T/A93T/A95T/C349S/D201E/D98Y/E176V/E187L/E204Q/E69T/I218V/K202T/L119I/Q94N/R155S/R180L/S121R/S35A/S48A/T118I/V127L/V306I/V36M/Y140S/Y91F)
HLA B*5101 = HLA B*5101 (Homo sapiens, UniProt P01889, A329T/A93T/A95T/C349S/D138N/D201E/D98Y/E187L/E204Q/E69T/G107R/I218V/K202T/L105A/L119W/N104I/Q94N/R106L/R155S/R180L/S101N/S121T/S35A/S48A/V306I/V36M/Y195H/Y91F)
HLA B*5301 = HLA B*5301 (Homo sapiens, UniProt P01889, A329T/A93T/A95T/C349S/D201E/D98Y/E176V/E187L/E204Q/E69T/G107R/I218V/K202T/L105A/L119I/N104I/Q94N/R106L/R155S/R180L/S101N/S121R/S35A/S48A/T118I/V127L/V306I/V36M/Y140S/Y91F)
HLA B*5401 = HLA B*5401 (Homo sapiens, UniProt P01889, A329T/C349S/D138N/D201E/E176V/E187T/E204Q/E69G/I76V/K202T/L119W/R155S/R180L/S121T/S35A/S48A/V127L/V306I/V36M/Y140L)
HLA B*5801 = HLA B*5801 (Homo sapiens, UniProt P01889, A329T/C349S/D201E/D98Y/E176V/E187L/E204Q/E69T/G107R/I218V/I90N/K202T/L105A/L119I/N104I/N87E/Q89R/Q94S/R106L/R155S/R180L/R86G/S101N/S121R/S35A/S48A/T118I/V127L/V306I/V36M/Y140S/Y91M)
HLA B*5802 = HLA B*5802 (Homo sapiens, UniProt P01889, A329T/C349S/D201E/D98Y/E176V/E187L/E204Q/E69T/G107R/I218V/I90N/K202T/L105A/N104I/N87E/Q89R/Q94S/R106L/R155S/R180L/R86G/S101N/S121W/S35A/S48A/V127L/V306I/V36M/Y140S/Y91M)
H-2 D^b = H-2 D^b (Mus musculus, UniProt P01899)
H-2 D^d = H-2 D^d (Mus musculus, UniProt P01900)
H-2 K^d = H-2 K^d (Mus musculus, UniProt P01902)
H-2 K^k = H-2 K^k (Mus musculus, UniProt P04223)
Sequence of H-2 K^k (P01887 21-119): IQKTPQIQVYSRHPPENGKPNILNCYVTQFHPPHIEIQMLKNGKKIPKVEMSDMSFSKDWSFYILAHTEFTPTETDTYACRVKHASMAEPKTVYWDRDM
Sequence of H-2 K^k (P04223 22-369): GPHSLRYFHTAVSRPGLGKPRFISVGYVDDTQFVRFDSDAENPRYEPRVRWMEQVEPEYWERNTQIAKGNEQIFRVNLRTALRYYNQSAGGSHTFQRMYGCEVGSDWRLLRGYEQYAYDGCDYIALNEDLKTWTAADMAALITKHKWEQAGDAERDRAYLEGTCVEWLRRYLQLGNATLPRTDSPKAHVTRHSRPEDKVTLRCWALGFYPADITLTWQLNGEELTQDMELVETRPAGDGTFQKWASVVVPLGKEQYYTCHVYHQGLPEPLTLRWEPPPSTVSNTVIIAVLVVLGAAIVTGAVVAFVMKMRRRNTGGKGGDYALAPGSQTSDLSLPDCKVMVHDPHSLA

Sequence of H-2 D^b (P01887 21-119): as the sequence (P01887 21-119) above
Sequence of H-2 D^b (P01899 25-362): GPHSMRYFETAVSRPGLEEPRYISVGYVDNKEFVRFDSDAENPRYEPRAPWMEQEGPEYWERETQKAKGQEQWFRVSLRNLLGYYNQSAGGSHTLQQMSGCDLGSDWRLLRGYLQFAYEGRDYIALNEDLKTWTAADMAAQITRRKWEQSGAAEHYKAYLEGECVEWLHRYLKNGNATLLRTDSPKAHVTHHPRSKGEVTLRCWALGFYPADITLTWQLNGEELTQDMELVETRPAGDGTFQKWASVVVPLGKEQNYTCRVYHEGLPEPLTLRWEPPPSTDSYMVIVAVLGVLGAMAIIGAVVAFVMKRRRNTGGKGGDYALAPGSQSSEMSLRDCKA
Sequence of H-2 K^d (P01887 21-119): as the sequence (P01887 21-119) above
Sequence of H-2 K^d (P01902 22-368): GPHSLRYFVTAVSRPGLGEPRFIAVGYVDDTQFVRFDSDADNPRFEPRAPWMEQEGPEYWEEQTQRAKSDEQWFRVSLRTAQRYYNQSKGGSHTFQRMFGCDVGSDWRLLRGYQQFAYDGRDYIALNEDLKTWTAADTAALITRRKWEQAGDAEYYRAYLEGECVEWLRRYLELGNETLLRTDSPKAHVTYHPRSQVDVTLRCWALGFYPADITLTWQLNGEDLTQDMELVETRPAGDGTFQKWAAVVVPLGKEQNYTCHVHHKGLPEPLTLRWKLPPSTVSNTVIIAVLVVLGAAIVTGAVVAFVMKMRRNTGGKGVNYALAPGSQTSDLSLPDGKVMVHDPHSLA
Sequence of H-2 D^d (P01900 whole entry, looked up): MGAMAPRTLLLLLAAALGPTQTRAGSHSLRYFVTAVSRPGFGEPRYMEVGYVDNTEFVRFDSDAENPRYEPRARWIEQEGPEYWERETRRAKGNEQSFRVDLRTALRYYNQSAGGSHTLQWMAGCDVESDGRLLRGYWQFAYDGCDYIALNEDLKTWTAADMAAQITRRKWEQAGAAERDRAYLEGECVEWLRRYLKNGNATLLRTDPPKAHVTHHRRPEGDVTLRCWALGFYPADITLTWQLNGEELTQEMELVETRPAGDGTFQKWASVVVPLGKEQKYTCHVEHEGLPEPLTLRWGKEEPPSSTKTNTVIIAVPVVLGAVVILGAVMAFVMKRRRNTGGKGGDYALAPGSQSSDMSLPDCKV

Compound	IC50 (HLA A*3201) [nM]	IC50 (HLA B*0801) [nM]	IC50 (HLA B*1501) [nM]	Normalized average relative binding affinity(ARB) (HLA A*3001)	Normalized average relative binding affinity(ARB) (HLA A*3201)	Normalized average relative binding affinity(ARB) (HLA A*6802)	Normalized average relative binding affinity(ARB) (HLA B*0801)	Normalized average relative binding affinity(ARB) (HLA B*1501)	Normalized average relative binding affinity(ARB) (HLA B*1503)	Normalized average relative binding affinity(ARB) (HLA B*3501)	Normalized average relative binding affinity(ARB) (HLA B*5101)	Normalized average relative binding affinity(ARB) (HLA B*5301)	Normalized average relative binding affinity(ARB) (HLA B*5401)	Normalized average relative binding affinity(ARB) (HLA B*5801)	Normalized average relative binding affinity(ARB) (HLA B*5802)	Normalized average relative binding affinity(ARB) (H-2 D^b)	Normalized average relative binding affinity(ARB) (H-2 D^d)	Normalized average relative binding affinity(ARB) (H-2 K^d)	Normalized average relative binding affinity(ARB) (H-2 K^k)	further results
CSCC[C@H](NC(=O)[C@@H](NC(=O)[C@@H](N)CCCCN)[C@@H](C)O)C(=O)N[C@@H](C)C(=O)N[C@H](C(=O)N[C@H](C(=O)N[C@@H](Cc1ccc(O)cc1)C(=O)N[C@@H](CCC(=O)O)C(=O)N[C@@H](CC(C)C)C(=O)O)[C@@H](C)O)C(C)C [3102.0293] (H-KTMAVTYEL-OH)	0.58	19	5.5	–	–	–	–	–	–	–	–	–	–	–	–	–	–	–	–	–
CC(C)C[C@H](NC(=O)[C@H](CCCCN)NC(=O)[C@H](CCCCN)NC(=O)[C@H](Cc1ccc(O)cc1)NC(=O)[C@H](CC(C)C)NC(=O)[C@@H](NC(=O)[C@@H](N)Cc1ccc(O)cc1)[C@@H](C)O)C(=O)N[C@@H](CO)C(=O)N[C@@H](Cc1ccccc1)C(=O)O [3102.0333] (H-YTLYKKLSF-OH)	194	16	14	–	–	–	–	–	–	–	–	–	–	–	–	–	–	–	–	IC50 (HLA A*3001): 23 nM
CC[C@H](C)[C@H](NC(=O)[C@H](CO)NC(=O)[C@H](C)NC(=O)[C@@H](NC(=O)[C@@H](NC(=O)[C@H](CC(N)=O)NC(=O)[C@H](CCCNC(=N)N)NC(=O)[C@@H](NC(=O)[C@@H](N)CCCNC(=N)N)C(C)C)[C@@H](C)CC)[C@@H](C)CC)C(=O)O [3102.0367] (H-RVRNIIASI-OH)	1	22	–	–	–	–	–	–	–	–	–	–	–	–	–	–	–	–	–	IC50 (HLA A*3001): 0.1 nM
CC(C)C[C@H](NC(=O)[C@H](CC(C)C)NC(=O)[C@@H](N)CCCCN)C(=O)N[C@@H](CO)C(=O)N[C@@H](Cc1c[nH]cn1)C(=O)N[C@@H](Cc1ccccc1)C(=O)N[C@@H](Cc1ccc(O)cc1)C(=O)N1CCC[C@H]1C(=O)N[C@@H](C)C(=O)O [3102.0665] (H-KLLSHFYPA-OH)	129	81	39	–	–	–	–	–	–	–	–	–	–	–	–	–	–	–	–	IC50 (HLA B*1503): 5.4 nM
CC(C)C[C@H](NC(=O)[C@@H]1CCCN1C(=O)[C@H](CO)NC(=O)[C@H](Cc1ccccc1)NC(=O)[C@H](Cc1ccc(O)cc1)NC(=O)[C@H](CCCCN)NC(=O)[C@H](C)NC(=O)[C@@H](NC(=O)[C@H](C)N)C(C)C)C(=O)O [3102.0978] (H-AVAKYFSPL-OH)	283	190	16	–	–	–	–	–	–	–	–	–	–	–	–	–	–	–	–	–
CC(C)C[C@H](NC(=O)[C@@H](N)CC(C)C)C(=O)N[C@@H](Cc1ccccc1)C(=O)N[C@@H](Cc1ccc(O)cc1)C(=O)N[C@H](C(=O)N[C@@H](CCCNC(=N)N)C(=O)N[C@@H](Cc1c[nH]cn1)C(=O)N[C@@H](CCCNC(=N)N)C(=O)N[C@@H](Cc1ccccc1)C(=O)O)[C@@H](C)O [3102.1058] (H-LLFYTRHRF-OH)	2.6	46	0.85	–	–	–	–	–	–	–	–	–	–	–	–	–	–	–	–	IC50 (HLA B*1503): 0.21 nM
XXXEXXXXX [3064.0064]	–	–	–	0.34	0.36	0.14	0.24	0.27	0.25	0.087	0.46	0.24	0.15	0.21	0.18	0.35	0.38	0.18	0.41	–
XXXFXXXXX [3064.0065]	–	–	–	1.0	1.0	0.74	0.55	0.42	0.41	0.10	0.64	0.21	0.31	0.31	0.45	0.38	0.96	0.098	0.38	–
XXXGXXXXX [3064.0066]	–	–	–	0.50	0.33	0.26	0.063	0.23	0.19	0.17	0.47	0.18	0.062	0.21	0.15	0.088	0.17	0.14	0.19	–

Reference: article PMC2248166, “Quantitative peptide binding motifs for 19 human and mouse MHC class I molecules derived using positional scanning combinatorial peptide libraries” (Immunome Research, 2008)
